Assay [1] addresses T1, Thymidylate synthase (EC 2.1.1.45) (TS) (TSase) (Escherichia coli, UniProt E2QDN0).
T1 sequence (E2QDN0 whole entry): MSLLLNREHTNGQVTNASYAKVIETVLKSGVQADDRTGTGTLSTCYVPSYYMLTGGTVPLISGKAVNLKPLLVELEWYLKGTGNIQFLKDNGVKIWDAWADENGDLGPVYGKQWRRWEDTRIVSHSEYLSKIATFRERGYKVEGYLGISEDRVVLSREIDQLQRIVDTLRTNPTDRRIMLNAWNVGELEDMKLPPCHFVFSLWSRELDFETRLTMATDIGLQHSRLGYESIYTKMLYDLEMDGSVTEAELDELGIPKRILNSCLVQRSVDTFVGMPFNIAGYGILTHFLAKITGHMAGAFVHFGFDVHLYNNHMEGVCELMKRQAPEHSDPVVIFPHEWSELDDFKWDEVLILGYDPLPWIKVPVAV
As to the kind of experiment: Inhibition of Escherichia coli TS assessed as oxidation of tetrahydrofolate to dihydrofolate after 2 to 12 mins by spectrophotometry.

The target of assay [2] is T2, Bifunctional dihydrofolate reductase-thymidylate synthase (Toxoplasma gondii, UniProt Q07422).
T2 sequence (Q07422 whole entry): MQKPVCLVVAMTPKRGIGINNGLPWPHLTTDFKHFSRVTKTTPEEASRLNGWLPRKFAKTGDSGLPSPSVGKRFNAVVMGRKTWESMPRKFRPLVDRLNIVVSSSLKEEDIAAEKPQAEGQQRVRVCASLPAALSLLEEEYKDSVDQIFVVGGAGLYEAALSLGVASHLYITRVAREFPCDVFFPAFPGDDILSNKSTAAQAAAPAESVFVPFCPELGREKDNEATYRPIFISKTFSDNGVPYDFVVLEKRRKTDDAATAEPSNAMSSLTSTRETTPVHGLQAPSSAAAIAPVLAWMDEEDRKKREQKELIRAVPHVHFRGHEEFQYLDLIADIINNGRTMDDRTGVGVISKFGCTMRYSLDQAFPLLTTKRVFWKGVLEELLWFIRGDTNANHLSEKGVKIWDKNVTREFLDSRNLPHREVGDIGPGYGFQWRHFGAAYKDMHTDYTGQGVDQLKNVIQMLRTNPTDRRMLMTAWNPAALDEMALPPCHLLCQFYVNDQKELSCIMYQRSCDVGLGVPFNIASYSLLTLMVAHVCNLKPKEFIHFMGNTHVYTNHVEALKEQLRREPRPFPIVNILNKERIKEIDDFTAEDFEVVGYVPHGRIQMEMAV
Nature of the assay: Inhibition of Toxoplasma gondii TS assessed as oxidation of tetrahydrofolate to dihydrofolate after 2 to 12 mins by spectrophotometry.

Assay [3] concerns the target T3, Thymidylate synthase (Homo sapiens, UniProt P04818). Nature of the assay: Inhibition of human TS assessed as oxidation of tetrahydrofolate to dihydrofolate after 2 to 12 mins by spectrophotometry.
Target sequence in this assay (P04818 whole entry): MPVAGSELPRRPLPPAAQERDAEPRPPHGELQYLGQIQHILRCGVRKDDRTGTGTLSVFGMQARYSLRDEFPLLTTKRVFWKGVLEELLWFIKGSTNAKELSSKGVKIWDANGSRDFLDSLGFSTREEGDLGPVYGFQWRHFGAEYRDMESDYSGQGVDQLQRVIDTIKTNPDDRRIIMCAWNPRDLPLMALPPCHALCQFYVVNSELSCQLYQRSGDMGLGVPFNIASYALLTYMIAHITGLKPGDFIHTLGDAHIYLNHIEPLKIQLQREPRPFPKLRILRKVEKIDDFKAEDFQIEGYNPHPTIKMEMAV
Assay [4] deals with T4, Dihydrofolate reductase (Homo sapiens, UniProt P00374).
T4 sequence (P00374 whole entry): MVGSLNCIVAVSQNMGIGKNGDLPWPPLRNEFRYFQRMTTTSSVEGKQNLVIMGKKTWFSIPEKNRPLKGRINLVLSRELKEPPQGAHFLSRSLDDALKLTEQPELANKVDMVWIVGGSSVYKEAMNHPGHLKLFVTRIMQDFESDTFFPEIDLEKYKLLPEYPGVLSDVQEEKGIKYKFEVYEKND
Nature of the assay: Inhibition of human DHFR by spectrophotometry.

In assay [5] the target is T5, Dihydrofolate reductase (Escherichia coli, UniProt P0ABQ4).
T5 sequence (P0ABQ4 whole entry): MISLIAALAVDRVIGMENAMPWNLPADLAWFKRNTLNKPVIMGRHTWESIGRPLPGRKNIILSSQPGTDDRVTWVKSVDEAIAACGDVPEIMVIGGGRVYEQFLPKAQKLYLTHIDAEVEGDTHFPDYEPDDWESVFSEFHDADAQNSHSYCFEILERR
As to the kind of experiment: Inhibition of Escherichia coli DHFR by spectrophotometry.

The target in assay [6] is T2, Bifunctional dihydrofolate reductase-thymidylate synthase. Nature of the assay: Inhibition of Toxoplasma gondii DHFR by spectrophotometry.
Assay [7] addresses T3, Thymidylate synthase. Nature of the assay: Ratio of premetrexed IC50 to compound IC50 for human TS.
Target sequence in this assay (P04818 2-313 limits assumed): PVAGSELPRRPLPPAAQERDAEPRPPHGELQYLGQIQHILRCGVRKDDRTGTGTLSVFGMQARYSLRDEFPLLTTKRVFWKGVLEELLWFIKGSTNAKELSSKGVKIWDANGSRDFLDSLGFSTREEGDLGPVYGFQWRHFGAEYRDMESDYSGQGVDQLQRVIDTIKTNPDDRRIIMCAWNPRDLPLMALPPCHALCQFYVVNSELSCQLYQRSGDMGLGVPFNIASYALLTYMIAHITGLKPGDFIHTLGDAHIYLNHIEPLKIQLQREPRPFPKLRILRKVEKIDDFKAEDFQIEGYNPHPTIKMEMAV

A value given as a limit tells only on which side of the number the result lay.

In the case of `Cc1nc2sc3cccc(CNc4ccc5c(c4)CN([C@@H](CCC(=O)O)C(=O)O)C5=O)c3c2c(=O)[nH]1`, the IC50 (as a rule, the midpoint of a concentration-inhibition curve) is 850 nM in assay [1]; 3700 nM in assay [2]; 800 nM on Thymidylate synthase [3]; more than 20000 nM at Dihydrofolate reductase [4]; more than 20 µM against Dihydrofolate reductase [5]; 1800 nM in assay [6]. The Ratio IC50 on Thymidylate synthase [7] was 50.

Take `Cc1[nH]c2nc(N)[nH]c(=O)c2c1Sc1ccc(C(=O)N[C@@H](CCC(=O)O)C(=O)O)cc1`: the values for the IC50 (in assay [2]; against Dihydrofolate reductase [5]; in assay [6]) were 90 nM, 22 µM and 230 nM, respectively.

For the molecule `Cc1nc2sc3cccc(CNc4ccc(C(=O)N[C@@H](CCC(=O)O)C(=O)O)cc4)c3c2c(=O)[nH]1`, the half-maximal inhibitory concentration (IC50) in assay [1] was 820 nM; in assay [2] it was 1700 nM; on Thymidylate synthase [3], 260 nM; against Dihydrofolate reductase [4], more than 20000 nM; on Dihydrofolate reductase [5], 15 µM; in assay [6], 1400 nM. Besides, on Thymidylate synthase [7], the Ratio IC50 was found to be 50.

For `Nc1nc2sc3cccc(CNc4ccc5c(c4)CN([C@@H](CCC(=O)O)C(=O)O)C5=O)c3c2c(=O)[nH]1`, the half-inhibitory concentration (IC50) in assay [1] was 50 nM; in assay [2], 170 nM; on Thymidylate synthase [3] it was 34 nM; on Dihydrofolate reductase [4] it was 100 nM; at Dihydrofolate reductase [5], 0.4 µM; in assay [6] it was 10 nM. Besides, the Ratio IC50 at Thymidylate synthase [7] was 50.

As for `Nc1nc2sc3cccc(CNc4ccc(C(=O)N[C@@H](CCC(=O)O)C(=O)O)cc4)c3c2c(=O)[nH]1`, the IC50 in assay [1] is 17 nM; in assay [2], 140 nM; on Thymidylate synthase [3] it was 68 nM; on Dihydrofolate reductase [4], 90 nM; against Dihydrofolate reductase [5], 0.4 µM; in assay [6], 20 nM. At Thymidylate synthase [7], the Ratio IC50 turned out to be 50.

On to `Nc1nc2[nH]cc(CCc3ccc(C(=O)N[C@@H](CCC(=O)O)C(=O)O)cc3)c2c(=O)[nH]1` [PEMETREXED], for which the IC50 in assay [1] turned out to be 76000 nM.

In the case of `Cc1nc2ccc3ccc(CNc4ccc5c(c4)CN([C@@H](CCC(=O)O)C(=O)O)C5=O)cc3c2c(=O)[nH]1` [OSI-7904], the half-inhibitory concentration (IC50) is 23 nM in assay [1]; 27 nM in assay [2]; more than 20000 nM on Dihydrofolate reductase [4]; 20 µM against Dihydrofolate reductase [5]; 710 nM in assay [6].

These data come from ChEMBL document CHEMBL1817595, “Design, synthesis, biological evaluation and X-ray crystal structure of novel classical 6,5,6-tricyclic benzo[4,5]thieno[2,3-d]pyrimidines as dual thymidylate synthase and dihydrofolate reductase inhibitors” (Bioorg Med Chem, 2011).
